{"source": "paper PMC9296036", "about": "“A peptide interfering with the dimerization of oncogenic KITENIN protein and its stability suppresses colorectal tumour progression” (Clinical and Translational Medicine, 2022)", "system": "Caco2/KITENIN-V5 cells", "experiment": "Autophagosome staining (Cyto-ID) in Caco2/KITENIN-V5 cells", "format": "cell-based", "details": "KDIP 5 μM, similar to rapamycin positive control", "experimental": "To test whether KDIP induces autophagy in KITENIN‐expressing Caco2 cells, cells were grown on coverslips for 24 h. Cells were washed with PBS and then stained with Cyto‐ID green fluorescence reagents (Enzo Life Sciences, Plymouth Meeting, PA) for 1 h at 37°C in a cell culture incubator. Cells were washed with PBS and mounted with […] mounting medium containing nuclear DAPI (Vector Lab). Cells were imaged by confocal microscope.\nFIGURE 3 RACK1 binds to KAI1 C‐terminal interacting tetraspanin (KITENIN) and KITENIN dimerization‐interfering peptide (KDIP) stimulates the degradation of KITENIN by inducing increased binding of RACK1 to KITENIN. (A) RACK1 specifically binds to KITENIN. Caco2/KITENIN‐V5 cells were transfected with RACK1‐GFP for 48 h, immunoprecipitated with anti‐GFP antibody and immunoblotted with anti‐V5 antibody to detect KITENIN bound with RACK1 (left panel). […] The proteins in whole‐cell lysate (WCL) were detected with the indicated antibody. […] Caco2 cells were transfected with KITENIN‐V5 and/or RACK1‐GFP (left) or KITENIN‐V5 and/or si‐RACK1 (right), and their expression after treatment with KDIP (1 μM, 24 h) was detected with the indicated antibody (upper) or subjected to invasion assay (lower). […] Caco2/KITENIN‐V5 cells were treated with KDIP for 24 h and assessed by immunoblot analyses using an anti‐KITENIN, an anti‐p62, or an anti‐LC3B antibody (left panel). […]", "note": "Ends that are not written are not given here."}
{"sequence": "YARVRRRGPRRWRLVSDEAV [KDIP]", "values": [{"measurement": "formation of the autophagosome (in words)", "value": "increased"}]}
